“Also recorded” adds a separate entry of the source. No end group written: not given here. *: point of attachment. Myristyl = CCCCCCCCCCCCCC*
Assays:
Format in all cases: cell-based
[1] = molecular target: T1, complex of PDL1 (unmodified) and IMPα1 (Homo sapiens, UniProt P52292); test: DUOLINK proximity assay PDL1 (unmodified) and IMPα1, MDA-MB-231; settings: for complex of PDL1 (unmodified) and IMPα1 (DUOLINK): MDA-MB-231
T1 construct: endogenous in cells; host or cells: MDA-MB-231
Protocol: (§1) To characterize unmodified PDL1 and IMPα1, MDA-MB-231 cells or CT26 cells were treated with vehicle control, DL-2-batch 1, DL-2-batch 2 or linear PDL1. Cells were permeabilised and were probed with the DUOLINK ligation assay. Cover slips were mounted on glass microscope slides with ProLong nucblue glass Antifade reagent (Life Technologies). PDL1 (unmodified) and IMPα1 DUOLINK Digital images were analysed using ImageJ software (ImageJ, NIH, Bethesda, MD, USA) and graphs represent the mean DOT Fluorescent Intensity in the nucleus or the cytoplasm compartments with significant differences calculated as per One-Way ANOVA comparison.
(A) CT26, 4T1 or MDA-MB-231 Cells were treated with inhibitors for 72 hours. Following inhibition, media was removed and replaced with WST-1 cell proliferation reagent. Absorbance was recorded at 450 nm after 1 hour. Data represent a single independent experiment performed in triplicate. Results are graphed as mean +/− standard error (SE). B) MDA-MB-231 or CT26 cancer cells were treated with vehicle control, DL-2-Batch 1 (original stock), DL-2-Batch 2 (current stock), DL-2-TBAB or linear PDL1. Cells were permeabilised and were probed with the DUOLINK ligation assay. Cover slips were mounted on glass microscope slides with ProLong nucblue glass Antifade reagent (Life Technologies). PDL1Ac and IMPα1 DUOLINK Digital images were analysed using ImageJ software (ImageJ, NIH, Bethesda, MD, USA) and graphs represent the mean DOT Fluorescent Intensity in the nucleus or the cytoplasm compartments with significant differences calculated as per one-way ANOVA comparison. […] PDL1-unmodified and IMPα1 DUOLINK digital images were analysed using ImageJ software (ImageJ, NIH, Bethesda, MD, USA) and graphs represent the mean DOT fluorescent intensity in the nucleus or the cytoplasm compartments with significant differences calculated as per one-way ANOVA comparison.
MDA-MB-231 and CT26 cells were treated with vehicle control, DL-2-Batch 1, DL-2-Batch 2, DL-2-TBAB (TBAB scaffold), DL-2-D (D-Isomer) or linear PDL1. […] PDL1 (unmodified) and IMPα1 and PDL1-PTM1 and IMPα1 DUOLINK digital images were analysed using ImageJ software (ImageJ, NIH, Bethesda, MD, USA) and graphs represent the mean DOT Fluorescent Intensity in the nucleus or the cytoplasm compartments with significant differences calculated as per One-Way ANOVA comparison. […]
MDA-MB-231 cells were treated with vehicle control (hollow nanoparticle), DL-2-NP at a concentration of 10 nM to 0.3 nM. […] PDL1 (unmodified) & IMPα1 DUOLINK digital images were analysed using ImageJ software (ImageJ, NIH, Bethesda, MD, USA) and graphs represent the mean DOT Fluorescent Intensity in the nucleus or the cytoplasm compartments with significant differences calculated as per One-WayANOVA comparison.

[2] = molecular target: T2, complex of PDL1 (unmodified) and IMPα1 (Mus musculus, UniProt P52293); test: DUOLINK proximity assay PDL1 (unmodified) and IMPα1, CT26
T2 construct: endogenous in cells; host or cells: CT26
Protocol: as §1
(A) CT26, 4T1 or MDA-MB-231 Cells were treated with inhibitors for 72 hours. […] Absorbance was recorded at 450 nm after 1 hour. […] PDL1Ac and IMPα1 DUOLINK Digital images were analysed using ImageJ software (ImageJ, NIH, Bethesda, MD, USA) and graphs represent the mean DOT Fluorescent Intensity in the nucleus or the cytoplasm compartments with significant differences calculated as per one-way ANOVA comparison. […] PDL1-unmodified and IMPα1 DUOLINK digital images were analysed using ImageJ software (ImageJ, NIH, Bethesda, MD, USA) and graphs represent the mean DOT fluorescent intensity in the nucleus or the cytoplasm compartments with significant differences calculated as per one-way ANOVA comparison. […]

[3] = molecular target: T3, complex of PDL1-PTM1 and IMPα1 (Homo sapiens, UniProt P52292); test: DUOLINK proximity assay PDL1-PTM1 (PDL1-Ac) and IMPα1, MDA-MB-231; settings: for complex of PDL1-PTM1 and IMPα1 (DUOLINK): MDA-MB-231
T3 construct: endogenous in cells; host or cells: MDA-MB-231
Protocol: MDA-MB-231 cells were treated with DL-2; with concentrations ranging from 10 μM to 0.00975 μM. MDA-MB-231 cells were treated with DL-2 or Control and were permeabilized and were probed with the DUOLINK ligation assay. Cover slips were mounted on glass microscope slides with Prolong nucleus glass Antifade reagent (Life Technologies). PDL1-Ac and IMPα1 DUOLINK Digital images were analyzed using ImageJ software (ImageJ, NIH, Bethesda, MD, USA) and graphs represent the mean DOT Fluorescent Intensity in the nucleus or the cytoplasm compartments with significant differences calculated as per Kruskal-Wallis one-way ANOVA.
MDA-MB-231 of were treated with vehicle control, DL-2-Batch 1, DL-2-Batch 2, or linear PDL1 peptide. Cells were permeabilised and were probed with the DUOLINK ligation assay. Cover slips were mounted on glass microscope slides with Prolong nucleus glass Antifade reagent (Life Technologies). PDL1Ac and IMPα1 DUOLINK Digital images were analysed using ImageJ software (ImageJ, NIH, Bethesda, MD, USA) and graphs represent the mean DOT Fluorescent Intensity in the nucleus or the cytoplasm compartments with significant differences calculated as per One-Way ANOVA comparison.
(A) CT26, 4T1 or MDA-MB-231 Cells were treated with inhibitors for 72 hours. Following inhibition, media was removed and replaced with WST-1 cell proliferation reagent. Absorbance was recorded at 450 nm after 1 hour. Data represent a single independent experiment performed in triplicate. Results are graphed as mean +/− standard error (SE). […] PDL1Ac and IMPα1 DUOLINK Digital images were analysed using ImageJ software (ImageJ, NIH, Bethesda, MD, USA) and graphs represent the mean DOT Fluorescent Intensity in the nucleus or the cytoplasm compartments with significant differences calculated as per one-way ANOVA comparison. […] PDL1-unmodified and IMPα1 DUOLINK digital images were analysed using ImageJ software (ImageJ, NIH, Bethesda, MD, USA) and graphs represent the mean DOT fluorescent intensity in the nucleus or the cytoplasm compartments with significant differences calculated as per one-way ANOVA comparison. […]

Compound: CCCCCCCCCCCCCC(=O)NC(C)C(=O)NC1CSCc2cc3cc(c2)CSC[C@H](NC(=O)[C@H](Cc2ccccc2)NC(=O)[C@H](C(C)CC)NC(=O)[C@H](Cc2ccccc2)NC(=O)[C@H]([C@@H](C)O)NC(=O)C(CC(C)C)NC1=O)C(=O)N[C@@H](CCCNC(C)=N)C(=O)N[C@@H](CC(C)C)C(=O)N[C@@H](CCCNC(=N)N)C(=O)N[C@@H](CCCCN)C(=O)NCC(=O)N[C@@H](CCCNC(=N)N)C(=O)NC(C(=O)N[C@@H](CCSC)C(=O)NC(CCSC)C(=O)N[C@@H](CC(=O)O)C(=O)NC(C(=O)N[C@@H](CCCCN)C(=O)NC(CCCCN)C(=O)O)C(C)C)CSC3 (mixture of isomers) [DL-2]
- complex of PDL1 (unmodified) and IMPα1 (DUOLINK) [1]: able to abrogate the complex
- IC50 ([1]; MDA-MB-231, DUOLINK, read-out: IC50 for abrogating the PDL1 and IMPα1 complex): 39 nM
- complex of PDL1 (unmodified) and IMPα1 (DUOLINK) [2]: able to abrogate the complex
- complex of PDL1-PTM1 and IMPα1 (DUOLINK) [3]: abrogate the complex of PDL1 and IMPα1 in a dose dependent manner; also recorded: able to abrogate the complex
- IC50 ([3]; MDA-MB-231, 10 μM to 0.00975 μM): 39 nM

Compound: LTFIFRLRKGRMMDVKK (Myristyl-LTFIFRLRKGRMMDVKK) [PDL1-L1, Myristyl- linear peptide, prototype]
- complex of PDL1 (unmodified) and IMPα1 (DUOLINK) [1]: unable to significantly impact the complex; also recorded: no change
- complex of PDL1 (unmodified) and IMPα1 (DUOLINK) ([1]; listed as linear PDL1 peptide): unable to significantly inhibit this complex
- complex of PDL1 (unmodified) and IMPα1 (DUOLINK) [2]: unable to significantly impact the complex; also recorded: no change
- complex of PDL1-PTM1 and IMPα1 (DUOLINK) [3]: unable to significantly prevent the complex; also recorded: no change

From patent US20240117005A1, “NOVEL BICYCLIC PEPTIDES” (THE COUNCIL OF THE QUEENSLAND INSTITUTE OF MEDICAL RESEARCH, priority 2021, published 2024)
